Assay results: US20060128634A1, “Alpha, alpha-disubstituted benzylglycine derivatives as HIV protease inhibitors” (priority 2002, published 2006)
≈ marks a conversion by molar mass, not a printed value.

Test system: HIV-1 (RF)
Experiment: HIV RNA assay: microplate based compound evaluation in HIV-1 infected MT-2 cells
Assay type: cell-based
Settings: Human immunodeficiency virus 1, MT2; HIV-1 (RF) infected MT-2 cells; value used to standardize the virus inoculum; read-out: IC90 (concentration of compound required to reduce the HIV RNA level by 90%)
Protocol: Plasmid pDAB 72 containing both gag and pol sequences of BH10 (bp 113-1816) cloned into PTZ 19R was prepared according to Erickson-Vitanen et al. AIDS Research and Human Retroviruses 1989, 5, 577. The plasmid was linearized with Bam HI prior to the generation of in vitro RNA transcripts using the Riboprobe Gemini system II kit (Promega) with T7 RNA polymerase. Synthesized RNA was purified by treatment with RNase free DNAse (Promega), phenol-chloroform extraction, and ethanol precipitation. RNA transcripts were dissolved in water, and stored at −70EC. The concentration of RNA was determined from the A260.
Biotinylated capture probes were purified by HPLC after synthesis on an Applied Biosystems (Foster city, Calif.) DNA synthesizer by addition of biotin to the 5N terminal end of the oligonucleotide, using the biotin-phosphoramidite reagent of Cocuzza, Tet. Lett. 1989, 30, 6287. […]
MT-2 and MT-4 cells were maintained in RPMI 1640 supplemented with 5% fetal calf serum (FCS) for MT-2 cells or 10% FCS for MT-4 cells, 2 mM L-glutamine and 50 μg/mL gentamycin, all from Gibco. […] Infectious titers of HIV-1(RF) stocks were 1-3×10^7 PFU (plaque forming units)/mL as measured by plaque assay on MT-2 cells (see below). […]

IC90: 0.2 µg/mL (≈ 0.947 µM)
SMILES: Nc1ccn([C@H]2CC[C@@H](CO)O2)c(=O)n1 [ddC, dideoxycytidine]
